Reference: patent US20160273042A1, “GENETIC MARKERS OF ANTIPSYCHOTIC RESPONSE” (SUREGENE, LLC, priority 2013, published 2016)
Values joined by “and” are separate entries in the source; they are usually repeats but may differ in a detail not shown here. Equal entries are not always repeated. “Also recorded” adds a separate entry of the source.

What was measured:
[1] = system: patients of the CATIE study (schizophrenia); experiment: CATIE trial: change in PANSS score (delta PANSS, LOCF) for subjects stratified by GARP genetic signature status; assay type: in vivo, human; settings: for Delta PANSS, Mean, GARP-1 negative: GARP-1 negative subjects; for Delta PANSS, Mean, GARP-1 negative / Delta PANSS, Mean, GARP-1 positive / Delta PANSS, Mean, GARP-2 negative / Delta PANSS, Mean, GARP-3 negative / Delta PANSS, Mean, GARP-3 positive / Delta PANSS, Mean, GARP-4 negative / Delta PANSS, Mean, GARP-4 positive / Delta PANSS, Mean, GARP-2 positive: LOCF, CATIE Phases 1-2; for Delta PANSS, Mean, GARP-1 positive / response in GARP-1 positive subjects, in words: GARP-1 positive subjects; for Delta PANSS, Mean, GARP-2 negative: GARP-2 negative subjects; for Delta PANSS, Mean, GARP-3 negative: GARP-3 negative subjects; for Delta PANSS, Mean, GARP-3 positive / response in GARP-3 positive subjects, in words: GARP-3 positive subjects; for Delta PANSS, Mean, GARP-4 negative: GARP-4 negative subjects; for Delta PANSS, Mean, GARP-4 positive: GARP-4 positive subjects; for Relative efficacy (positive), GARP-1: GARP-1 positive versus negative subjects; for Relative efficacy (positive), GARP-1 / Relative efficacy (positive), GARP-2 / Relative efficacy (positive), GARP-3 / Relative efficacy (positive), GARP-4: t-test; for Relative efficacy (positive), GARP-2: GARP-2 positive versus negative subjects; for Relative efficacy (positive), GARP-3: GARP-3 positive versus negative subjects; for Relative efficacy (positive), GARP-4: GARP-4 positive versus negative subjects; for response in GARP-1 positive subjects, in words: compared with GARP-1 negative subjects or with other drugs; for response in GARP-2 positive subjects, in words: compared with GARP-2 negative subjects or with other drugs; for response in GARP-2 positive subjects, in words / Delta PANSS, Mean, GARP-2 positive: GARP-2 positive subjects; for response in GARP-3 positive subjects, in words: compared with GARP-3 negative subjects or with other drugs
Experimental: The CATIE study, a large federally funded clinical trial designed to assess the efficacy of antipsychotics in a real world setting, is a valuable resource for determining the role of genes in baseline psychopathology and drug response (Lieberman et al., 2005; Stroup et al., 2003). […] Additionally, whole genome SNP genotyping was performed for roughly half of the trial participants (Sullivan et al., 2008).
Genotype and phenotype data for the CATIE trial were recently made available to qualified researchers through the NIMH Center for Collaborative Genetic Studies on Mental Disorders. The sample consisted of a total of 738 patients. Further details on the patient population are described in the study by Sullivan and coworkers (Sullivan et al., 2008). The CATIE SNP genotype data evaluated included a total of 492,900 SNPs located throughout the genome.
The design of the CATIE study has been described in detail by others (Lieberman et al., 2005; Stroup et al., 2003). […] Subjects that failed Phase 1 treatment with the typical antipsychotic perphenazine were treated differently than those subjects that failed phase I treatment with an atypical antipsychotic. Instead of entering into Phase II of the trial, subjects who switched from perphenazine entered Phase IB. […] Subjects who failed Phase IB then entered Phase II.
A total of 738 subjects consented to provide DNA for genetic study. […] Only retrospective genetic analyses, judged to be exempt from human studies requirements by an IRB, were conducted in the current study. For the genetic analyses presented herein, the inventors combined and evaluated drug response data for Phase IA, Phase IB, and Phase II of the CATIE study. All tested patients were studied using well established clinical endpoints comparing baseline, intermediate, and last observation carried forward (LOCF) for the PANSS scores using CATIE data. LOCF analysis is a commonly used clinical endpoint for clinical trials for neuropsychiatric drugs, with particular changes in PANSS scores being used to indicate clinically significant response (Leucht et al., 2009).
Using the clinical data from the CATIE trial, the inventors derived several different metrics used for quantifying response in clinical trials of antipsychotic medications. The most commonly used psychometric instrument is the Positive and Negative Syndrome Scale (PANSS), a 30-item semi-quantitative instrument scored by clinical professionals (Kay et al., 1987). The greater the decrease in PANSS score, the better the clinical response. The most direct measure of clinical response is absolute change in PANSS score (delta PANSS). In addition to absolute change, the improvement is often reported as a percentage change from baseline PANSS score.
As mentioned previously, the mean change in PANSS at LOCF provides an important measure of efficacy in patients undergoing antipsychotic treatments. Indeed, many pivotal trials in the psychosis field used absolute and/or percentage change in PANSS Score as the primary endpoint (Leucht et al., 2009). […] Therefore, the inventors determined the impact of segmentation by GARP genetic signature status on the quantitative measure of clinical improvement—delta PANSS (for LOCF).
Each table lists the six drugs used during the first two phases of the CATIE trial.

[2] = hierarchy high / medium / low risk; cited from earlier work
[3] = system: psychotic symptoms (PANSS); settings: difference in mean response drug minus placebo arm, divided by standard deviation; negative = greater reduction in PANSS; cited from earlier work
[4] = system: psychotic symptoms (PANSS); settings: versus first generation antipsychotics; cited from earlier work

## CN1CCN(C2=Nc3cc(Cl)ccc3Nc3ccccc32)CC1 [Clozapine, clozapine]
[1]
  Delta PANSS, Mean, GARP-1 negative: −15.32
  Delta PANSS, Mean, GARP-1 positive: −14.0
  Delta PANSS, Mean, GARP-2 negative: −24.33
  Delta PANSS, Mean, GARP-3 negative: −13.6
  Delta PANSS, Mean, GARP-3 positive: −31
  Delta PANSS, Mean, GARP-4 negative: −13.4
  Delta PANSS, Mean, GARP-4 positive: −26.3
[1]; difference in delta PANSS, GARP-2 positive vs negative
  worse response of GARP-2 positive than GARP-2 negative patients: ~20 points

## Cc1cc2c(s1)Nc1ccccc1N=C2N1CCN(C)CC1 [Olanzapine, olanzapine]
[1]
  Delta PANSS, Mean, GARP-1 negative: −7.48
  Relative efficacy (positive), GARP-1: Enhanced
  Delta PANSS, Mean, GARP-2 negative: −10.73
  Relative efficacy (positive), GARP-2: Neutral
  Delta PANSS, Mean, GARP-3 negative: −9.5
  Delta PANSS, Mean, GARP-3 positive: −6.3
  Relative efficacy (positive), GARP-3: Neutral
  Delta PANSS, Mean, GARP-4 negative: −9.0
  Delta PANSS, Mean, GARP-4 positive: −9.3
  Relative efficacy (positive), GARP-4: Neutral
[2]
  risk for weight gain, classification: high risk

## OCCN1CCN(CCCN2c3ccccc3Sc3ccc(Cl)cc32)CC1 [Perphenazine, perphenazine]
[1]
  Delta PANSS, Mean, GARP-1 negative: −6.40
  response in GARP-1 positive subjects, in words: decreased response; also recorded: Neither quetiapine nor perphenazine demonstrated efficacy
  Delta PANSS, Mean, GARP-1 positive: 2.84 and 2.8
  Relative efficacy (positive), GARP-1: Decreased
  Delta PANSS, Mean, GARP-2 negative: 0.52
  response in GARP-2 positive subjects, in words: enhanced response; also recorded: responded better; also recorded: superior efficacy
  Relative efficacy (positive), GARP-2: Enhanced
  Delta PANSS, Mean, GARP-3 negative: −5.5
  Delta PANSS, Mean, GARP-3 positive: 0.7
  Relative efficacy (positive), GARP-3: Neutral
  Delta PANSS, Mean, GARP-4 negative: −4.7
  Delta PANSS, Mean, GARP-4 positive: −3.0
  Relative efficacy (positive), GARP-4: Neutral

## OCCOCCN1CCN(C2=Nc3ccccc3Sc3ccccc32)CC1 [Quetiapine, quetiapine]
[3]
  Effect Size vs. Placebo: −0.42
[1]
  Delta PANSS, Mean, GARP-1 negative: −0.53
  response in GARP-1 positive subjects, in words: Neither quetiapine nor perphenazine demonstrated efficacy
  Relative efficacy (positive), GARP-1: Neutral
  Delta PANSS, Mean, GARP-2 negative: −2.86
  response in GARP-2 positive subjects, in words: decreased response; also recorded: responded worse; also recorded: lack of efficacy
  Delta PANSS, Mean, GARP-2 positive: 1.51 and 1.5
  Relative efficacy (positive), GARP-2: Decreased
  Delta PANSS, Mean, GARP-3 negative: −0.1
  response in GARP-3 positive subjects, in words: enhanced response; also recorded: responded significantly better
  Delta PANSS, Mean, GARP-3 positive: −4.3
  Relative efficacy (positive), GARP-3: Neutral
  Delta PANSS, Mean, GARP-4 negative: −0.7
  Delta PANSS, Mean, GARP-4 positive: −1.6
  Relative efficacy (positive), GARP-4: Neutral
[2]
  risk for weight gain, classification: medium risk
[4]
  Effect Size vs. FGA: 0.01

## Cc1nc2n(c(=O)c1CCN1CCC(c3noc4cc(F)ccc34)CC1)CCCC2 [Risperidone, risperidone]
[3]
  Effect Size vs. Placebo: −0.59
[1]
  Delta PANSS, Mean, GARP-1 negative: −4.55
  response in GARP-1 positive subjects, in words: enhanced response; also recorded: significant efficacy
  Relative efficacy (positive), GARP-1: Enhanced
  Delta PANSS, Mean, GARP-2 negative: −4.65
  response in GARP-2 positive subjects, in words: superior efficacy
  Relative efficacy (positive), GARP-2: Neutral
  Delta PANSS, Mean, GARP-3 negative: −6.9
  response in GARP-3 positive subjects, in words: decreased response; also recorded: responded poorly
  Delta PANSS, Mean, GARP-3 positive: 2.1
  Relative efficacy (positive), GARP-3: Decreased
  Delta PANSS, Mean, GARP-4 negative: −5.4
  Delta PANSS, Mean, GARP-4 positive: −6.7
  Relative efficacy (positive), GARP-4: Neutral
[2]
  risk for weight gain, classification: medium risk
[4]
  Effect Size vs. FGA: −0.25

## O=C1Cc2cc(CCN3CCN(c4nsc5ccccc45)CC3)c(Cl)cc2N1 [Ziprasidone, ziprasidone]
[3]
  Effect Size vs. Placebo: −0.48
[1]
  Delta PANSS, Mean, GARP-1 negative: −2.94
  response in GARP-1 positive subjects, in words: worsening of symptoms
  Delta PANSS, Mean, GARP-1 positive: 12.72 and 12.7
  Relative efficacy (positive), GARP-1: Decreased
  Delta PANSS, Mean, GARP-2 negative: 3.51
  response in GARP-2 positive subjects, in words: enhanced response
  Delta PANSS, Mean, GARP-2 positive: −2.8
  Relative efficacy (positive), GARP-2: Enhanced
  Delta PANSS, Mean, GARP-3 negative: −0.1
  Delta PANSS, Mean, GARP-3 positive: −4.5
  Relative efficacy (positive), GARP-3: Neutral
  Delta PANSS, Mean, GARP-4 negative: 0.4
  Delta PANSS, Mean, GARP-4 positive: −4.3
  Relative efficacy (positive), GARP-4: Neutral
[1]; listed as ziprasidone
  response in GARP-1 positive subjects, in words: decreased response; also recorded: responded particularly poorly; also recorded: NON-response
[2]
  risk for weight gain, classification: low risk
[4]
  Effect Size vs. FGA: −0.04

## O=C1CCc2ccc(OCCCCN3CCN(c4cccc(Cl)c4Cl)CC3)cc2N1 [aripiprazole]
[1]
  response in GARP-1 positive subjects, in words: NON-response
[2]
  risk for weight gain, classification: low risk
